Measurements as given in US20240216325A1, “NUCLEAR FACTOR KAPPA B PATHWAY INHIBITION TO ARREST CALCIFIC AORTIC STENOSIS” (CORNELL UNIVERSITY, priority 2019, published 2024).

What was measured:
RANKL = biological target: T1, RANKL (Mus musculus, UniProt O35235); conditions: literature (Weiss et al. 2013); cited from earlier work
T1 construct: host or cells: hypercholesterolemic mice (in vivo, endogenous protein)
T1 sequence (O35235 1-316): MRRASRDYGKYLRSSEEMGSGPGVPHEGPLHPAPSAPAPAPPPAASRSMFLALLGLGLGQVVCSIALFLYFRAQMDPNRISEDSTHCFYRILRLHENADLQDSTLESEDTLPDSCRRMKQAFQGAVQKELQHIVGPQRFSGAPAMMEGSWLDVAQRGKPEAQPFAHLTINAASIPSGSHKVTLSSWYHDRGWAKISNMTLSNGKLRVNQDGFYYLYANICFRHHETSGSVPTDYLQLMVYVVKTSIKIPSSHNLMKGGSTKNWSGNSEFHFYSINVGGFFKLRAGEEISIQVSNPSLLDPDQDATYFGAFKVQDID

[1] = test system: LDLR−/− mice, a CAVD mouse model; assay: Echocardiography (pulsed-wave Doppler) of heart valve function in CAVD mouse model; assay type: in vivo
Procedure: Animals. Mouse experiments were performed according to the guidelines of the National Institute of Health and the protocols approved by the Institutional Animal Care and Use Committee of Cornell University. The mice used were LDLR (low-density lipoprotein receptor)-/- mice from Jackson Labs (No. 2270). Mice were fed a high-fat diet (Harlan Teklad No. TD88137, 42% of calories from fat, 0.25% cholesterol). Age-matched C57BL6J mice were obtained from Jackson Laboratories (Bar Harbour, ME) for control study. Drug administration. The NFκB pathway was intervened by administering either BAY11-7082 (injected intraperitoneal 3 times per week at 5 mg/kg) or tetrahydrobiopterin (BH4) (oral gavage at 10 mg/kg/day) to LDLR/mice, for 8 weeks after giving them high fat diet for 20 weeks Echocardiography. Transthoracic echocardiography was performed under 2% isofluorane anaesthesia, with M[…] and MS5[…] probes connected to a Vevo 2100 system (VisualSonics). Heart valve function was assessed at 6 months and 8 months of age using according to established procedures. Mice were anesthetized using inhaled 2% isoflurane. Abdominal hair was removed using a chemical depilatory cream, and warmed ultrasound transmission gel was applied to the anterior thorax. Probes were applied in the long-axis and short-axis position to the chest. Transvalvular velocity and pressure gradients were captured using the pulsed-wave Doppler mode and manual tracing of >3 velocity time intervals on the resulting plots. In this work, the NFkB pathway was intervened by administering either BAY11-7082 (injected intraperitoneal 3 times per week at 5 mg/kg) or tetrahydrobiopterin (BH4) (oral gavage at 10 mg/kg/day) to LDLR^-/- mice, a CAVD mouse model, for another 8 weeks after starting them on high fat diet for 20 weeks (FIGS. 17A-17C). Cardiac hemodynamic parameters, such as aortic valve peak velocity and left ventricle ejection fraction, were measured using doppler ultrasound before and after BAYT 1-7082 and BH4 administration. […]

[2] = test system: LDLR−/− mice, a CAVD mouse model; assay: Alizarin red staining for calcium contents on the aortic valves; assay type: in vivo; conditions: 8 weeks treatment after 20 weeks high fat diet
Procedure: Animals. Mouse experiments were performed according to the guidelines of the National Institute of Health and the protocols approved by the Institutional Animal Care and Use Committee of Cornell University. The mice used were LDLR (low-density lipoprotein receptor)−/− mice from Jackson Labs (No. 2270). Mice were fed a high-fat diet (Harlan Teklad No. TD88137, 42% of calories from fat, 0.25% cholesterol). Age-matched C57BL6J mice were obtained from Jackson Laboratories (Bar Harbour, ME) for control study. Drug administration. The NFκB pathway was intervened by administering either BAY11-7082 (injected intraperitoneal 3 times per week at 5 mg/kg) or tetrahydrobiopterin (BH4) (oral gavage at 10 mg/kg/day) to LDLR/mice, for 8 weeks after giving them high fat diet for 20 weeks Tissue staining and immunohistochemistry. Mouse hearts were isolated, perfused, fixed, embedded in paraffin, sectioned, and mounted. Alizarin red staining (ARS). Sections were deparaffinized and incubated in ARS stain for 5 minutes (1% Alizarin red in water, pH 4.2 adjusted by using 10% ammonium hydroxide in water). Sections were incubated in acetone for 30 seconds and then rinsed with a 1:1 solution of acetone and xylene. […] Cardiac hemodynamic parameters, such as aortic valve peak velocity and left ventricle ejection fraction, were measured using doppler ultrasound before and after BAYT 1-7082 and BH4 administration. […]

[3] = test system: LDLR−/− mice, a CAVD mouse model; assay: Fibro-osteogenic gene profiling (Q-PCR) on aortic valve tissues; assay type: in vivo; conditions: 8 weeks treatment after 20 weeks high fat diet
Procedure: Animals. Mouse experiments were performed according to the guidelines of the National Institute of Health and the protocols approved by the Institutional Animal Care and Use Committee of Cornell University. The mice used were LDLR (low-density lipoprotein receptor)−/− mice from Jackson Labs (No. 2270). Mice were fed a high-fat diet (Harlan Teklad No. TD88137, 42% of calories from fat, 0.25% cholesterol). Age-matched C57BL6J mice were obtained from Jackson Laboratories (Bar Harbour, ME) for control study. Drug administration. The NFκB pathway was intervened by administering either BAY11-7082 (injected intraperitoneal 3 times per week at 5 mg/kg) or tetrahydrobiopterin (BH4) (oral gavage at 10 mg/kg/day) to LDLR/mice, for 8 weeks after giving them high fat diet for 20 weeks Q-PCR analysis. Mouse Aortic valve samples were homogenized, total RNA was isolated using Takarabio RNA, purified and further quantified via Nanodrop. […] Quantitative RT-PCR was performed on all samples using SYBR Green PCR master mix (Applied Biosystems, Foster City, CA) and a CFX96 or MiniOpticon Real-Time PCR Detection System (Bio-Rad, Hercules, CA). […] Cardiac hemodynamic parameters, such as aortic valve peak velocity and left ventricle ejection fraction, were measured using doppler ultrasound before and after BAYT 1-7082 and BH4 administration. […]

[4] = test system: NFκB canonical signaling activity; conditions: acute cardiovascular injury, literature; cited from earlier work
Porcine aortic VEC = assay: VEC on 3D collagen hydrogels, calcification by Alizarin Red S staining and dye extraction; assay type: cell-based; conditions: OGM+TNFα 30 ng/mL, 14 days
Description: Primary Aortic Valve Cell Isolation and Culture. Porcine valves are a widely used analog for human adult valve endothelial and interstitial cells. Unlike mice, pigs develop atherosclerosis and valvular lesions without intervention, similar to humans. Large-scale culture of porcine valve cell populations is feasible due to ample tissue size/cell dissociation yields. […] Only VEC cultures with consistent CD31 and VE-cadherin (vascular endothelial cadherin) expression, cobblestone morphology, and nondetectable αSMA (alphasmooth muscle actin) expression were used. αSMA levels were measured via RT-PCR (>37 cycle threshold), Western blot, and immunofluorescence.
All reagents were obtained from Sigma Aldrich, St. Louis, MO, unless otherwise noted. […]
Hydrogel Calcification Analysis. To quantify calcified matrix developed in different experimental conditions, an Alizarin Red absorbance assay was implemented. […] The concentration of dye in solution was then quantified using absorbance spectroscopy at 405-nm wavelength. Samples absorbance readings were normalized to basal growth medium culture condition.

NFκB p65 = assay: p65 nuclear localization in VEC on 3D hydrogels (immunofluorescence); assay type: cell-based, porcine; conditions: 48 hour, OGM alone insufficient
Procedure: White arrows indicate cells with nuclear-positive signal. Scale bar is 20 μm. […] Asterisks indicate statistically significant groups (*: p<0.05).
3D Hydrogel Culture Model Preparation. Cellularized type II collagen hydrogels were prepared as previously described (Butcher et al., “Valvular Endothelial Cells Regulate the Phenotype of Interstitial Cells in Co-Culture: Effects of Steady Shear Stress,” Tissue Eng. 12:905-915 (2006), which is hereby incorporated by reference in its entirety)). Briefly, porcine aortic valve endothelial cells were topically seeded at 50,000 cell/cm^2 density, whereas porcine aortic valve interstitial cells were encapsulated within the neutralized collagen gel suspension (2 mg/mL) at 1,000,000 cells/mL density. Constructs were allowed to gel for 1 hour at 37° C., 5% CO2, and then cultured overnight in their respective basal-medium conditions. For osteogenic differentiation conditions, basal-medium was supplemented with 10 mmol/L β-glycerophosphate, 50 μg/mL 1-ascorbic acid, and 100 nM dexamethasone, as previously described (Richards et al., “Side-Specific Endothelial-Dependent Regulation of Aortic Valve Calcification: Interplay of Hemodynamics and Nitric Oxide Signaling,” Am J Pathol. 182:1922-1931 (2013), which is hereby incorporated by reference in its entirety). […]

[5] = test system: valve endothelial cells (VEC); assay: EndMT in VEC: VE-cadherin, αSMA, SNAI1 by RT-PCR and immunofluorescence; assay type: cell-based, porcine; conditions: GM+TNFα 30 ng/mL, 48 h
Procedure: Scale bar is 20 μm. […] Scale bar is […]. […] Arrows indicate cells coexpressing CD31 and αSMA. Scale bar is 100 μm. […] Asterisks indicate β-gal-positive cells in interstitial space. Scale bar is […]. CTL indicates control; GM, basal growth medium; and LDLR, low-density lipoprotein receptor.
3D Hydrogel Culture Model Preparation. Cellularized type II collagen hydrogels were prepared as previously described (Butcher et al., “Valvular Endothelial Cells Regulate the Phenotype of Interstitial Cells in Co-Culture: Effects of Steady Shear Stress,” Tissue Eng. 12:905-915 (2006), which is hereby incorporated by reference in its entirety)). Briefly, porcine aortic valve endothelial cells were topically seeded at 50,000 cell/cm^2 density, whereas porcine aortic valve interstitial cells were encapsulated within the neutralized collagen gel suspension (2 mg/mL) at 1,000,000 cells/mL density. Constructs were allowed to gel for 1 hour at 37° C., 5% CO2, and then cultured overnight in their respective basal-medium conditions. For osteogenic differentiation conditions, basal-medium was supplemented with 10 mmol/L β-glycerophosphate, 50 μg/mL 1-ascorbic acid, and 100 nM dexamethasone, as previously described (Richards et al., “Side-Specific Endothelial-Dependent Regulation of Aortic Valve Calcification: Interplay of Hemodynamics and Nitric Oxide Signaling,” Am J Pathol. 182:1922-1931 (2013), which is hereby incorporated by reference in its entirety). For exogenous TNFα administration, recombinant human TNFα was added to appropriate media condition before administration at 30 ng/mL.
Quantitative Real-Time Polymerase Chain Reaction. Total RNA was extracted using a RNeasy total RNA purification kit (Qiagen, Valencia, CA), and RNA was reverse transcribed to cDNA using the iScript cDNA synthesis kit (Bio-Rad, Hercules, CA). Quantitative RT-PCR was performed on all samples using SYBR Green PCR master mix (Applied Biosystems, Foster City, CA) and a CFX96 or MiniOpticon Real-Time PCR Detection System (Bio-Rad, Hercules, CA). Samples amplifying at >37 cycles were considered nondetectable.
For in vitro cultures, intact collagen gels were rinsed twice in PBS and fixed in 4% paraformaldehyde for 1 hour at 25° C. Samples were rinsed 3× on a rocker with PBS for 15 minutes each, permeabilized with 0.2% Triton-X (VWR International, West Chester, PA) for 10 minutes on rocker, and blocked in 10% goat serum for 1 hour at 25° C.

[6] = LDLR−/− mice on high fat diet, treatment from 6 months, read at 8 months, vs control LDLR−/− given 10% DMSO/PBS

Compound: osteoprotegerin: decoy receptor for RANKL
- CAVD calcification (RANKL): mitigates CAVD calcification

Compound: Cc1ccc(S(=O)(=O)/C=C/C#N)cc1 [BAY11-7082]
- aortic valve peak velocity [1, 6]: lessened increase
- ejection fraction velocity ratio (EFVR) [1, 6]: lessened
- hemodynamic effect by sex ([1]; female vs male LDLR−/− mice, 8 weeks treatment): significantly affected both female and male mice
- calcium deposition on the aortic valves (Alizarin red staining) [2]: less calcium deposition
- collagen type 1A (Col1A) mRNA expression in aortic valve tissue [3]: significantly decreased
- intercellular adhesion molecule 1 (ICAM1) mRNA expression in aortic valve tissue [3]: significantly decreased
- treatment of septic shock or ischemic reperfusion injury [4]: effective

Compound: TNFα
- calcium deposition (ARS) (Porcine aortic VEC): significantly increased
- p65 nuclear localization (NFκB p65): required to induce p65 nuclear localization
- EndMT induction [5]: induced EndMT
- SNAI1 gene expression [5]: significantly increased
- VE-cadherin gene expression (CDH5) [5]: reduction in gene expression
- αSMA expression [5]: increased
